The term IC50 denotes the concentration that gives 50% inhibition.

These results are taken from patent US20120122931A1, “INDOLE DERIVATIVE OR PHARMACEUTICALLY ACCEPTABLE SALT THEREOF” (KISSEI PHARMACEUTICAL CO., LTD., priority 2009, published 2012).

One assay concerns the target T1, rat EP1 receptor (Rattus norvegicus, UniProt P70597).
T1 construct: expressed in transfected cells; host or cells: COS-1 cells, transient transfection with Lipofectamine 2000
T1 sequence (P70597 1-405): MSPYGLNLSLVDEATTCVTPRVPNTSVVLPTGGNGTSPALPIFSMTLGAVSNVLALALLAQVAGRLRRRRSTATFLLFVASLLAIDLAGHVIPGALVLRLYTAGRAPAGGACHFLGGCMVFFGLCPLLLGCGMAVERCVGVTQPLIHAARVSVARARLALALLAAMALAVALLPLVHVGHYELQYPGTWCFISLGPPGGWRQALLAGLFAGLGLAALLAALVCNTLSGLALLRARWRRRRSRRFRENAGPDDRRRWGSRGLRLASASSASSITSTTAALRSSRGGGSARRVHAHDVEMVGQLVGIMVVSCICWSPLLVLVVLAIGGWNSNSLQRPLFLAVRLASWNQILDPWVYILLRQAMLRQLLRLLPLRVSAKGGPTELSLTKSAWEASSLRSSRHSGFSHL
Description: Test for confirmation of EP1 receptor antagonism: inhibition of prostaglandin E2-induced increase in intracellular calcium concentration (Method A or Method B). It counts as cell-based. The conditions noted are these: Method A (Fluo-4 NW, FlexStation); rat EP1 receptor-expressing cells; prostaglandin E2 10 nM. Here is the method:
(1) Preparation of Rat EP1 Expression vector
Using Rat Kidney BD Marathon-Ready cDNA (Nippon Becton Dickinson Company, Ltd.) as a template, a forward primer shown in SEQ ID NO. 1, and a reverse primer shown in SEQ ID NO. 2, a first run of PCR was carried out using KOD-Plus-Ver 2.0 (Toyobo Co., Ltd.). Further, using this amplification product as a template, a forward primer shown in SEQ ID NO. 3, and a reverse primer shown in SEQ ID NO. 4, a second run of PCR was carried out in the same manner. The amplification product obtained by the second run of PCR was incorporated into a vector (pcDNA3.1 D/V5-His-TOPO (registered trademark), Invitrogen Japan K. K.). By a conventional method, the vector containing this amplification product was introduced to E. coli (One Shot TOP10 Competent Cells, Invitrogen Corporation) to transform. This transformed E. coli was cultured in an LB agar medium for one day. After the culture, colonies were selected and cultured in an LB liquid medium containing 50 μg/mL of ampicillin. After the culture, the vector was purified using a QIAprep Spin Miniprep Kit (Qiagen K. K.). The base sequence of the insertion site of this vector (SEQ ID NO. 5) was compared with the rat EP1 base sequence (Ptger1) registered as an accession number NM_013100 in well-known database (NCBI), and as a result, they all matched except for a single base. Further, the amino acid sequence translated by the base sequence completely matched the amino acid sequence of the rat EP1 receptor registered as an NCBI accession number NP_037232. Therefore, it was confirmed that the cloned gene sequence was a base sequence of the rat EP1 receptor and the obtained amino acid sequence was that of the rat EP1 receptor. The pcDNA3.1 D/V5-His-TOPO (registered trademark) to which the nucleic acid shown in SEQ ID NO. 5 had been inserted was taken as a rat EP1-expressing vector.
(2) Preparation of Rat EP1 Receptor-Expressing Cells
COS-1 cells (Dainippon Sumitomo Pharma Co., Ltd.) were cultured until it reached confluence in an incubator at 37° C. under a 5% CO2 gas condition, using a D-MEM liquid medium (high glucose and L-glutamine contained, Invitrogen Corporation) to which a penicillin-streptomycin solution (Invitrogen Corporation, final concentration: 100 U/mL as benzylpenicillin; 100 μg/mL as streptomycin) as an antibiotic, MEM nonessential amino acids (Invitrogen Corporation, final Concentration: 0.1 mM), and fetal calf serum (Sanko Junyaku Co., Ltd., final concentration: 10%) were added.
(2-2) COS-1 Cell Subculture
The cells that had reached confluence were stripped with 0.05% trypsin/0.53 mM EDTA 4Na (Invitrogen Japan K. K.) and resuspended in the above liquid medium. The resuspended cells were diluted and cultured in the above liquid medium at a spread ratio from 1:4 to 1:8.
(2-3) Preparation of Cells for Introduction of Rat EP1-Expressing Vector
The cells that had reached confluence were stripped with 0.05% trypsin/0.53 mM EDTA.4Na, and resuspended in a D-MEM liquid medium (high glucose and L-glutamine contained, Invitrogen Corporation) to which an MEM nonessential amino acid (final concentration: 0.1 mM) and fetal calf serum (final concentration: 10%) were added. In each well of a Poly D-lysine-coated 96-well microplate (BD BioCoat (registered trademark), Nippon Becton Dickinson Company, Ltd.), this resuspended cell suspension culture was prepared to be 5×10^4 cells/well in 100 μL of the liquid medium, and seeded thereon. After seeding, the cells were cultured in an incubator at 37° C. under a 5% CO2 gas condition. At a point when the cells for introduction of a rat EP1-expressing vector were adhered (about 2 hours after seeding), introduction of the rat EP1-expressing vector was carried out in the following order.
(2-4) Introduction of Rat EP1-Expressing Vector
For introduction of the rat EP1-expressing vector, Lipofectamine 2000 (Invitrogen Japan K. K.) was used. […]
In general terms: Calcium flux is commonly read through the fluorescence of an indicator in the cells.
Consider `COc1ccc2c(Cc3cccc(C(=O)O)c3)c(-c3ccsc3)[nH]c2c1` [Example 4-12, 3-(6-methoxy-2-thiophen-3-yl-1H-indol-3-ylmethyl)benzoic acid], for which the IC50 was 40 nM. Still for that read-out and setting: for `O=C(O)c1cccc(Cc2c(-c3ccccc3)[nH]c3cc(Cl)ccc23)n1` [Example 4-17, 6-(6-chloro-2-phenyl-1H-indol-3-ylmethyl)pyridine-2-carboxylic acid] the value was 15 nM; for `CCc1ccc2c(Cc3cccc(C(=O)O)n3)c(-c3ccccc3)[nH]c2c1` [Example 4-27], 28 nM; for `CCOc1ccc2c(Cc3cccc(C(=O)O)n3)c(-c3ccccc3)[nH]c2c1` [Example 4-34, 6-(6-ethoxy-2-phenyl-1H-indol-3-ylmethyl)pyridine-2-carboxylic acid], 44 nM. Still for that read-out and setting: the figure for `Cc1ccc2c(Cc3cccc(C(=O)O)n3)c(-c3ccccc3)[nH]c2c1` [Example 4-35, 6-(6-methyl-2-phenyl-1H-indol-3-ylmethyl)pyridine-2-carboxylic acid] is 18 nM; for `O=C(O)c1cccc(Cc2c(-c3ccccc3)[nH]c3cc(C(F)(F)F)ccc23)n1` [Example 11-3] it is 42 nM.

As for `COc1ccc2c(Cc3cccc(C(=O)O)n3)c(-c3cccc(Cl)c3)[nH]c2c1` [Example 11-21, 6-[2-(3-chlorophenyl)-6-methoxy-1H-indol-3-ylmethyl]pyridine-2-carboxylic acid], the IC50 turned out to be 23 nM.

Still in this assay, the particulars now being: Method B (Calcium kit II Fluo 4, FDSS 7000); rat EP1 receptor-expressing cells; prostaglandin E2 10 nM.
Regarding `CC(C)Cc1cn(-c2cccc(C(=O)O)n2)c2cc(Cl)ccc12` [Comparative Example, sodium 6-(6-chloro-3-isobutylindol-1-yl)pyridine-2-carboxylate, reference compound], the half-maximal inhibitory concentration (IC50) was found to be 476 nM. Same read-out and setting: for `COc1ccc2c(Cc3cccc(C(=O)O)n3)c(-c3ccoc3)[nH]c2c1` [Example 11-10, 6-(2-furan-3-yl-6-methoxy-1H-indol-3-ylmethyl)pyridine-2-carboxylic acid] the value was 15 nM.

For `COc1ccc2c(Cc3cccc(C(=O)O)n3)c(-c3cccnc3)[nH]c2c1` [Example 11-11, 6-(6-methoxy-2-pyridin-3-yl-1H-indol-3-ylmethyl)pyridine-2-carboxylic acid], the IC50 stood at 32 nM. Turning to `COc1ccc2c(Cc3cccc(C(=O)O)n3)c(-c3ccc(F)cc3)[nH]c2c1` [Example 11-13, 6-[2-(4-fluorophenyl)-6-methoxy-1H-indol-3-ylmethyl]pyridine-2-carboxylic acid], the IC50 worked out at 31 nM. Still for that read-out and setting: the figure for `COc1ccc2c(Cc3cccc(C(=O)O)c3)c(-c3ccoc3)[nH]c2c1` [Example 11-15, 3-(2-furan-3-yl-6-methoxy-1H-indol-3-ylmethyl)benzoic acid] is 48 nM; for `COc1ccc2c(Cc3cccc(C(=O)O)n3)c(-c3cccs3)[nH]c2c1` [Example 11-17, 6-(6-methoxy-2-thiophen-2-yl-1H-indol-3-ylmethyl)pyridine-2-carboxylic acid] it is 50 nM. As to `COc1ccc2c(Cc3cccc(C(=O)O)n3)c(-c3cncs3)[nH]c2c1` [Example 11-24, 6-(6-methoxy-2-thiazol-5-yl-1H-indol-3-ylmethyl)pyridine-2-carboxylic acid], the 50% inhibitory concentration (IC50) stood at 41 nM. `COc1cccc(-c2[nH]c3cc(OC)ccc3c2Cc2cccc(C(=O)O)n2)c1` [Example 11-34, 6-[6-methoxy-2-(3-methoxyphenyl)-1H-indol-3-ylmethyl]pyridine-2-carboxylic acid]: the IC50 is 36 nM. Still for that read-out and setting: for `COc1ccc2c(Cc3nc(C(=O)O)cs3)c(-c3ccccc3)[nH]c2c1` [Example 11-37] the value was 50 nM.

With `COc1ccc2c(Cc3cccc(C(=O)O)n3)c(-c3ccc(F)c(F)c3)[nH]c2c1` [Example 16-2, 6-[2-(3,4-difluorophenyl)-6-methoxy-1H-indol-3-ylmethyl]pyridine-2-carboxylic acid], the IC50 stood at 23 nM.

For the compound `COc1ccc2c(Cc3cccc(C(=O)O)n3)c(-c3cc(F)c(F)c(F)c3)[nH]c2c1` [Example 16-6, 6-[6-methoxy-2-(3,4,5-trifluorophenyl)-1H-indol-3-ylmethyl]pyridine-2-carboxylic acid], the half-maximal inhibitory concentration (IC50) stood at 44 nM.

Regarding `O=C(O)c1cccc(Cc2c(-c3ccccc3)[nH]c3cc(C4CC4)ccc23)n1` [Example 16-8, 6-(6-cyclopropyl-2-phenyl-1H-indol-3-ylmethyl)pyridine-2-carboxylic acid], the IC50 came to 32 nM. Still for that read-out and setting: for `COc1ccc2c(Cc3cccc(C(=O)O)c3F)c(-c3ccccc3)[nH]c2c1` [Example 16-9, 2-fluoro-3-(6-methoxy-2-phenyl-1H-indol-3-ylmethyl)benzoic acid] the value was 41 nM; for `COc1ccc2c(Cc3cccc(C(=O)O)n3)c(-c3cncc(F)c3)[nH]c2c1` [Example 16-11, 6-[2-(5-fluoropyridin-3-yl)-6-methoxy-1H-indol-3-ylmethyl]pyridine-2-carboxylic acid], 27 nM.

Turning to `COc1cc2[nH]c(-c3ccccc3)c(Cc3cccc(C(=O)O)n3)c2cc1C` [Example 16-12, 6-(6-methoxy-5-methyl-2-phenyl-1H-indol-3-ylmethyl)pyridine-2-carboxylic acid], the 50% inhibitory concentration (IC50) was found to be 23 nM. The same measure, in the same setting: for `COc1cc2[nH]c(-c3ccccc3)c(Cc3cccc(C(=O)O)n3)c2cc1Cl` [Example 16-13, 6-(5-chloro-6-methoxy-2-phenyl-1H-indol-3-ylmethyl)pyridine-2-carboxylic acid] the value was 36 nM; for `COc1cc2[nH]c(-c3ccccc3)c(Cc3cccc(C(=O)O)n3)c2cc1F` [Example 16-16, 6-(5-fluoro-6-methoxy-2-phenyl-1H-indol-3-ylmethyl)pyridine-2-carboxylic acid], 25 nM. `COc1ccc2c(Cc3ccc(F)c(C(=O)O)c3)c(-c3ccccc3)[nH]c2c1` [Example 16-18, 2-fluoro-5-(6-methoxy-2-phenyl-1H-indol-3-ylmethyl)benzoic acid]: the IC50 worked out at 30 nM. Still for that read-out and setting: for `Cc1ccc2c(Cc3cccc(C(=O)O)n3)c(-c3ccsc3)[nH]c2c1` [Example 16-21, 6-(6-methyl-2-thiophen-3-yl-1H-indol-3-ylmethyl)pyridine-2-carboxylic acid] the value was 24 nM. With `COc1cc2c(Cc3cccc(C(=O)O)n3)c(-c3ccccc3)[nH]c2cc1Cl` [Example 16-23, 6-(6-chloro-5-methoxy-2-phenyl-1H-indol-3-ylmethyl)pyridine-2-carboxylic acid], the half-inhibitory concentration (IC50) was 34 nM.

`COc1cc2[nH]c(-c3ccsc3)c(Cc3cccc(C(=O)O)n3)c2cc1C` [Example 16-24, 6-(6-methoxy-5-methyl-2-thiophen-3-yl-1H-indol-3-ylmethyl)pyridine-2-carboxylic acid]: the IC50 was 22 nM.
